“Also recorded” adds a separate entry of the source.
tested on: pentylenetetrazole (Metrazol) induced seizures; experiment: Subcutaneous pentylenetetrazole (Metrazol) seizure threshold test (Met) in mice; type: in vivo, male Carworth Farms number-1 mice; settings: Mus musculus, ip; Table 7, value without parentheses = effective dose; read-out: Effective Intraperitoneal Dose, Met
Description: (§1) Compounds were screened for anticonvulsant activity in male Carworth Farms number-1 mice. Test solutions of all compounds were prepared in 30% polyethylene glycol 400, and animals were dosed intraperitoneally at either 30 minutes or 4 hours prior to testing. Testing was conducted on four mice at each of three dose levels (30, 100, and 300 mg/kg).
(§2) In the subcutaneous pentylenetetrazole (Metrazol) seizure threshold test(met), 85 mg/kg pentylenetetrazole was administered as a 0.5% solution in the posterior midline. Protection in this test was defined as a failure to observe a single episode of clonic spasms of at least 5 s duration during the 30 minute period following administration of the convulsive agent.
as §1, with “Biological testing--Compounds” for “Compounds”, “number-one” for “number-1”, “min” for “minutes”, “h” for “hours”
as §2, with “test (Met),” for “test(met),”, “min” for “minute”

| SMILES | minimal effective dose |
| --- | --- |
| CCOC(=O)c1cc(O)c2ccc(Cl)cc2n1 [7-Cl-kyn-2-ethyl ester] | 300 mg/kg |
| Cc1c(Cl)ccc2c(O)cc(C(=O)O)nc12 [7-Cl-8-methyl-kyn-2-COOH] | 300 mg/kg |

same assay, conditions: Mus musculus, ip; mice, intraperitoneal; read-out: dose active in Met test

| SMILES | minimal effective dose |
| --- | --- |
| CCOC(=O)c1cc(O)c2ccc(Cl)cc2n1 [7-Cl-kyn-2-ethyl ester] | 300 mg/kg |
| Cc1c(Cl)ccc2c(O)cc(C(=O)O)nc12 [7-Cl-8-methyl-kyn-2-COOH] | 300 mg/kg |

same assay, conditions: Table 7, value in parentheses = maximum ineffective dose

| SMILES | (Maximum Ineffective) Intraperitoneal Dose, Met |
| --- | --- |
| COc1ccc2[nH]c(C(=O)O)cc2c1 [5-methoxy-indole-2-COOH] | 300 mg/kg |
| O=C(O)c1cccc(C(=O)O)n1 [2,6-pyridine dicarboxylic acid, pyridine-2,6-dicarboxylic acid] | 300 mg/kg |

tested on: not listed separately; experiment: Rotorod test for neurological deficit (TOX) in mice; type: in vivo, male Carworth Farms number-1 mice; settings: mouse, in vivo, ip
Description: as §1
(§3) Animals were also tested for neurological deficit using the rotorod. After treatment, the animal was placed on a 1 inch diameter knurled plastic rod rotating at 6 rpm. Neurologic deficit was defined as the failure of the animal to remain on the rod for 1 minute.
as §1, with “Biological testing--Compounds” for “Compounds”, “number-one” for “number-1”, “min” for “minutes”, “h” for “hours”
(§4) Animals were also tested for neurological deficit using the rotorod. After treatment, the animal was placed on a 1 inch diameter knurled plastic rod rotating at 6 rpm. Neurologic deficit was defined as the failure of the animal to remain on the rod for 1 min.

| SMILES | NOAEL |
| --- | --- |
| CCOC(=O)c1cc(O)c2ccc(Cl)cc2n1 [7-Cl-kyn-2-ethyl ester] | 300 mg/kg |
| Cc1c(Cl)ccc2c(O)cc(C(=O)O)nc12 [7-Cl-8-methyl-kyn-2-COOH] | 300 mg/kg |

tested on: neurological deficit (rotorod); experiment: as above; type: in vivo, male Carworth Farms number-1 mice; settings: Table 7, value without parentheses = effective dose (neurologic deficit)
Description: as §1, §3
as §1, with “Biological testing--Compounds” for “Compounds”, “number-one” for “number-1”, “min” for “minutes”, “h” for “hours”
as §4

| SMILES | Effective Intraperitoneal Dose, Rotorod |
| --- | --- |
| O=C(O)c1cccc(C(=O)O)n1 [2,6-pyridine dicarboxylic acid, pyridine-2,6-dicarboxylic acid] | 300 mg/kg |

same assay, conditions: evidenced by the rotorod test

| SMILES | crossing of the blood-brain barrier |
| --- | --- |
| O=C(O)c1cccc(C(=O)O)n1 [2,6-pyridine dicarboxylic acid, pyridine-2,6-dicarboxylic acid] | did cross the blood-brain barrier |

same assay, conditions: mice, intraperitoneal

| SMILES | dose causing neurological deficit on rotorod |
| --- | --- |
| O=C(O)c1cccc(C(=O)O)n1 [2,6-pyridine dicarboxylic acid, pyridine-2,6-dicarboxylic acid] | 300 mg/kg |

same assay, conditions: mouse, in vivo, ip

| SMILES | Effective Intraperitoneal Dose, Rotorod |
| --- | --- |
| COc1ccc2[nH]c(C(=O)O)cc2c1 [5-methoxy-indole-2-COOH] | 300 mg/kg |

molecular target: T1, strychnine-insensitive glycine binding site of the NMDA receptor (Rattus norvegicus, UniProt P35439); experiment: Inhibition of [3H]glycine specific binding (strychnine-insensitive) in rat cerebral cortex membranes; settings: 10 uM compound
T1 construct: Membranes were prepared from rat cerebral cortex; from tissue; host or cells: rat cerebral cortex, "buffy coat" membranes
Description: Binding Studies--Inhibition of [^3 H]glycine specific binding was assayed using [^3 H]glycine (43 Ci/mmol) obtained from DuPont-New England Nuclear. […] Membranes were prepared from rat cerebral cortex and assays were conducted in Na-free 50 mM HEPES (Sigma) at pH 7.4. Membranes were incubated in a final volume of 1 ml with 20 nM [^3 H]glycine and a 10 uM concentration of the test compound. Although experience has shown that [^3 H]glycine binding in this preparation is strychnine insensitive, 10 uM strychnine was added to the assay mixtures to eliminate the possibility that any effects studied could be mediated through a strychnine-sensitive process. Incubation was continued for 20 min at 4° C. Non-specific binding was determined in the presence of 1 mM glycine and subtracted. All conditions were tested in triplicate in 3 different assays. Binding was terminated using a Brandel M-24C cell harvester employing rapid filtration through GF/C glass fiber filters pre-soaked in 1% (V/V) polyethylenimine. Filters were washed twice with 5 ml buffer cooled to 4° C. Radioactivity bound to the filters was determined with a Beckman LS-500OTD liquid scintillation counter.

| SMILES | [3H]glycine binding inhibition |
| --- | --- |
| O=C(O)c1cccc(C(=O)O)n1 [2,6-pyridine dicarboxylic acid, pyridine-2,6-dicarboxylic acid] | no glycine displacement; also recorded: did neither |
| CCOC(=O)c1cc2cc(Cl)ccc2[nH]1 [5-Cl-2-ethyl ester] | inactive |
| CCOC(=O)c1cc2cc(O)ccc2[nH]1 [5-hydroxyl-2-ethyl ester] | binding activity |
| Cc1cc2c(O)cc(C(=O)O)nc2cc1Cl [6-CH3-7-Cl-2-COOH] | glycine-binding inhibition |

tested on: seizures induced by electroshock and pentylenetetrazole; experiment: Anticonvulsant testing, overall (MES and Met); type: in vivo, male Carworth Farms number-1 mice; settings: mice, intraperitoneal
Description: as §1
(§5) Maximal electroshock seizures (MES) were elicited with a 60 cycle alternatiing current of 50-mA intensity (five to seven times that necessary to evoke minimal electroshock threshold seizures). Current was delivered via corneal electrodes for 0.2 s. A drop of 0.9% saline was instilled in the eye prior to application of electrodes. Abolition of the hindlimb tonic extension component of the seizure was defined as protection in the MES test.
as §2
as §1, with “Biological testing--Compounds” for “Compounds”, “number-one” for “number-1”, “min” for “minutes”, “h” for “hours”
as §5, with “alternating” for “alternatiing”
as §2, with “test (Met),” for “test(met),”, “min” for “minute”

| SMILES | anticonvulsant activity (words) |
| --- | --- |
| CCOC(=O)c1cc(O)c2c(Cl)cc(Cl)cc2n1 [5,7 0-di-Cl-2-ethyl ester, 5,7-dichloro-kynurenate ethyl ester] | inactive |
| COc1ccc2[nH]c(C(=O)O)cc2c1 [5-methoxy-indole-2-COOH] | no anticonvulsant activity |
| O=C(O)c1cccc(C(=O)O)n1 [2,6-pyridine dicarboxylic acid, pyridine-2,6-dicarboxylic acid] | did neither |
| CCOC(=O)c1cc2cc(Cl)ccc2[nH]1 [5-Cl-2-ethyl ester] | inactive; also recorded: abolished activity |
| CCOC(=O)c1cc2cc(O)ccc2[nH]1 [5-hydroxyl-2-ethyl ester] | no CNS effects |
| Cc1cc2c(O)cc(C(=O)O)nc2cc1Cl [6-CH3-7-Cl-2-COOH] | no anticonvulsant activity |
